The target of assay [1] is T1, human mAChR M1 (Homo sapiens, UniProt P11229).
T1 sequence (P11229 1-460): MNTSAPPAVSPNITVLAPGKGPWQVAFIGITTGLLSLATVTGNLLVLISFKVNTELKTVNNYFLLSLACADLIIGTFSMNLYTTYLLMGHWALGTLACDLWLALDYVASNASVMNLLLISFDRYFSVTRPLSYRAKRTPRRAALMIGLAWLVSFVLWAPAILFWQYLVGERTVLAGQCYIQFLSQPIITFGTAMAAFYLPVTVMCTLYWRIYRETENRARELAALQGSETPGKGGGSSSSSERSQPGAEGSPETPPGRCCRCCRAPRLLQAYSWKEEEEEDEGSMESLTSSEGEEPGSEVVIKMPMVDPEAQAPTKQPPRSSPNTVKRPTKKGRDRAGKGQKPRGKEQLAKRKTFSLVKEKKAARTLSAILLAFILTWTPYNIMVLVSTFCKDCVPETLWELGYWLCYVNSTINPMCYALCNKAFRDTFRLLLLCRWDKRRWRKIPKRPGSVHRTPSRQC
Description: mAChR M1 cell-based functional assay (calcium mobilization), PAM mode: increase in the EC20 acetylcholine response. In a few lines:
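PAM readout is the concentration-dependent rise in the EC20 acetylcholine calcium signal, fitted to a four-parameter logistic (EC50, Emax). Compounds were preincubated from 4 s before ACh at 144 s (EC20) and 230 s (EC80). hM1-expressing CHO-K1 cells loaded with Fluo-4, FDSS ratio read.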
On the technique in general: Calcium assays in cells follow changes in intracellular calcium, usually with a dye or a luminescent sensor.

The target in assay [2] is T1, human mAChR M1. Description: mAChR M1 cell-based functional assay (calcium mobilization), agonist mode: compound alone, Emax relative to acetylcholine maximum. Particulars: for Agonist Activity Human M1 EC50 / EC50: human mAChR M1; for Emax: relative to the maximum for acetylcholine; call rule not given here. In a few lines:
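Agonist activity is the concentration-dependent rise in intracellular calcium (Fluo-4, 1 Hz read) after compound addition, measured before any acetylcholine was added, in stable hM1 CHO-K1 cells. Curves were 11-point, 1:3 dilutions fitted by four-parameter logistic. Emax is given as a fraction of maximal acetylcholine response.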

Data on 19 molecules can be found in patent US20240228489A1, “POSITIVE ALLOSTERIC MODULATORS OF THE MUSCARINIC ACETYLCHOLINE RECEPTOR M1” (Vanderbilt University, priority 2021, published 2024).

The structures appear in SMILES notation.

Turning to `[2H]C1([2H])c2ncccc2C(=O)N1Cc1c(Cl)cc(-c2cccc3nn(C)cc23)cc1C1CC1` [Compound 219, 6-(2-chloro-6-cyclopropyl-4-(2-methyl-2H-indazol-4-yl)benzyl)-6,7-dihydro-5H-pyrrolo[3,4-]pyridin-5-one-7,7-d2], in assay [1], the EC50 came out at 490 nM and the Emax was determined as 89%. Also, in assay [2], the “Agonist Activity Human M1 EC50” value is given as “Inactive” and the Emax turned out to be 8%.

As to `[2H]C1([2H])c2ncccc2C(=O)N1Cc1c(Cl)cc(-c2cccc3nn(C([2H])([2H])[2H])cc23)cc1C1CC1` [Compound 220, 6-(2-chloro-6-cyclopropyl-4-(2-(methyl-d3)-2H-indazol-4-yl)benzyl)-6,7-dihydro-5H-pyrrolo[3,4-b]pyridin-5-one-7,7-d2], in assay [1], the EC50 is 472 nM and the Emax worked out at 86%. For the same molecule, in assay [2], the “Agonist Activity Human M1 EC50” value is “Inactive” and the Emax came out at 8%.

In the case of `[2H]C1([2H])c2ncccc2C(=O)N1Cc1c(F)cc(-c2cccc3nn(C)cc23)cc1N1CCC1` [Compound 221, 6-(2-(azetidin-1-yl)-6-fluoro-4-(2-methyl-2H-indazol-4-yl)benzyl)-6,7-dihydro-5H-pyrrolo[3,4-b]pyridin-5-one-7,7-d2], in assay [1], the EC50 was found to be 2690 nM and the Emax is 82%. Also, in assay [2], the “Agonist Activity Human M1 EC50” value is listed as “Inactive” and the Emax was 2%.

With `[2H]C1([2H])c2ncccc2C(=O)N1Cc1c(F)cc(-c2cccc3nn(C([2H])([2H])[2H])cc23)cc1N1CCC1` [Compound 222, 6-(2-(azetidin-1-yl)-6-fluoro-4-(2-(methyl-d3)-2H-indazol-4-yl)benzyl)-6,7-dihydro-5H-pyrrolo[3,4-b]pyridin-5-one-7,7-d2], in assay [1], the EC50 was 3780 nM and the Emax is 77%. Moreover, in assay [2], the “Agonist Activity Human M1 EC50” value is “Inactive” and the maximal effect (Emax) stood at 1%.

In the case of `[2H]C1([2H])c2ncccc2C(=O)N1Cc1c(F)cc(-c2cccc3nn(C)cc23)cc1C1CCCC1` [Compound 223, 6-(2-cyclopentyl-6-fluoro-4-(2-methyl-2H-indazol-4-yl)benzyl)-6,7-dihydro-5H-pyrrolo[3,4-b]pyridin-5-one-7,7-d2], in assay [1], the EC50 amounted to 5240 nM and the Emax was 59%. In addition, in assay [2], the “Agonist Activity Human M1 EC50” value is listed as “Inactive” and the Emax was 1%.

For `[2H]C1([2H])c2ncccc2C(=O)N1Cc1c(F)cc(-c2cccc3nn(C([2H])([2H])[2H])cc23)cc1C1CCCC1` [Compound 224, 6-(2-cyclopentyl-6-fluoro-4-(2-(methyl-d3)-2H-indazol-4-yl)benzyl)-6,7-dihydro-5H-pyrrolo[3,4-b]pyridin-5-one-7,7-d2], in assay [1], the EC50 is 6460 nM and the Emax came to 62%. In assay [2], the “Agonist Activity Human M1 EC50” value was “Inactive” and the Emax came out at 1%.

`[2H]C1([2H])c2ncccc2C(=O)N1Cc1c(F)cc(-c2cccc3nn(C)cc23)cc1C(F)(F)F` [Compound 225, 6-(2-fluoro-4-(2-methyl-2H-indazol-4-yl)-6-(trifluoromethyl)benzyl)-6,7-dihydro-5H-pyrrolo[3,4-b]pyridin-5-one-7,7-d2]: in assay [1], the EC50 was 1370 nM and the Emax came out at 58%. Also, in assay [2], the “Agonist Activity Human M1 EC50” value is “Inactive” and the Emax is 3%.

As to `[2H]C1([2H])c2ncccc2C(=O)N1Cc1c(F)cc(-c2cccc3nn(C([2H])([2H])[2H])cc23)cc1C(F)(F)F` [Compound 226, 6-(2-fluoro-4-(2-(methyl-d3)-2H-indazol-4-yl)-6-(trifluoromethyl)benzyl)-6,7-dihydro-5H-pyrrolo[3,4-b]pyridin-5-one-7,7-d2], in assay [1], the EC50 worked out at 1360 nM and the Emax was 54%. In addition, in assay [2], the “Agonist Activity Human M1 EC50” value is listed as “Inactive” and the Emax was determined as 2%.

As to `[2H]C1([2H])c2ncccc2C(=O)N1Cc1c(Cl)cc(-c2cccc3nn(C)cc23)cc1Cl` [Compound 227, 6-(2,6-dichloro-4-(2-methyl-2H-indazol-4-yl)benzyl)-6,7-dihydro-5H-pyrrolo[3,4-b]pyridin-5-one-7,7-d2], in assay [1], the EC50 is 900 nM and the Emax was 63%. For the same molecule, in assay [2], the “Agonist Activity Human M1 EC50” value is listed as “Inactive” and the Emax was found to be 1%.

Regarding `[2H]C1([2H])c2ncccc2C(=O)N1Cc1c(Cl)cc(-c2cccc3nn(C([2H])([2H])[2H])cc23)cc1Cl` [Compound 228, 6-(2,6-dichloro-4-(2-(methyl--d3)-2H-indazol-4-yl)benzyl)-6,7-dihydro-5H-pyrrolo[3,4-b]pyridin-5-one-7,7-d2], in assay [1], the 50% effective concentration (EC50) was determined as 380 nM and the Emax was 60%. Besides, in assay [2], the “Agonist Activity Human M1 EC50” value is listed as “Inactive” and the maximal response (Emax) was 1%.

In the case of `[2H]C1([2H])c2ncccc2C(=O)N1Cc1c(F)cc(-c2cccc3nn(C)cc23)cc1N(C)C` [Compound 229, 6-(2-(dimethylamino)-6-fluoro-4-(2-methyl-2H-indazol-4-yl)benzyl)-6,7-dihydro-5H-pyrrolo[3,4-b]pyridin-5-one-7,7-d2], in assay [1], the EC50 is at least 10000 nM and the Emax turned out to be 42%. In addition, in assay [2], the “Agonist Activity Human M1 EC50” value is “Inactive” and the Emax amounted to 4%.

Consider `[2H]C1([2H])c2ncccc2C(=O)N1Cc1c(F)cc(-c2cccc3nn(C([2H])([2H])[2H])cc23)cc1N(C)C` [Compound 230, 6-(2-(dimethylamino)-6-fluoro-4-(2-(methyl-d3)-2H-indazol-4-yl)benzyl)-6,7-dihydro-5H-pyrrolo[3,4-b]pyridin-5-one-7,7-d2], for which, in assay [1], the EC50 was at least 10000 nM and the Emax is 38%. Besides, in assay [2], the “Agonist Activity Human M1 EC50” value is “Inactive” and the Emax turned out to be 3%.

With `[2H]C1([2H])c2ncccc2C(=O)N1Cc1c(F)cc(-c2cccc3nn(C)cc23)cc1OC` [Compound 231, 6-(2-fluoro-6-methoxy-4-(2-methyl-2H-indazol-4-yl)benzyl)-6,7-dihydro-5H-pyrrolo[3,4-b]pyridin-5-one-7,7-d2], in assay [1], the EC50 was 806 nM and the Emax worked out at 73%. Besides, in assay [2], the “Agonist Activity Human M1 EC50” value is given as “Inactive” and the maximal effect (Emax) worked out at 7%.

For `[2H]C1([2H])c2ncccc2C(=O)N1Cc1c(F)cc(-c2cccc3nn(C([2H])([2H])[2H])cc23)cc1OC` [Compound 232, 6-(2-fluoro-6-methoxy-4-(2-(methyl-d3)-2H-indazol-4-yl)benzyl)-6,7-dihydro-5H-pyrrolo[3,4-b]pyridin-5-one-7,7-d2], in assay [1], the concentration giving a half-maximal response (EC50) turned out to be 760 nM and the Emax stood at 80%. In assay [2], the “Agonist Activity Human M1 EC50” value is given as “Inactive” and the Emax worked out at 8%.

With `[2H]C1([2H])c2ncccc2C(=O)N1Cc1ccc(-c2cccc3nn(C)cc23)cc1C(C)C` [Compound 233, 6-(2-isopropyl-4-(2-methyl-2H-indazol-4-yl)benzyl)-6,7-dihydro-5H-pyrrolo[3,4-b]pyridin-5-one-7,7-d2], in assay [1], the EC50 was at least 10000 nM and the Emax worked out at 43%. Further, in assay [2], the “Agonist Activity Human M1 EC50” value was “Inactive” and the Emax stood at 1%.

As for `[2H]C1([2H])c2ncccc2C(=O)N1Cc1ccc(-c2cccc3nn(C([2H])([2H])[2H])cc23)cc1C(C)C` [Compound 234, 6-(2-isopropyl-4-(2-(methyl-d3)-2H-indazol-4-yl)benzyl)-6,7-dihydro-5H-pyrrolo[3,4-b]pyridin-5-one-7,7-d2], in assay [1], the EC50 was at least 10000 nM and the Emax was 42%. Also, in assay [2], the “Agonist Activity Human M1 EC50” value was “Inactive” and the Emax is 1%.

As for `[2H]C1([2H])c2ncccc2C(=O)N1Cc1c(F)cc(-c2cccn3nc(C)cc23)cc1F` [Compound 235, 6-(2,6-Difluoro-4-(2-methylpyrazolo[1,5-a]pyridin-4-yl)benzyl)-6,7-dihydro-5H-pyrrolo[3,4-b]pyridin-5-one-7,7-d2], in assay [1], the EC50 was found to be 744 nM and the Emax was found to be 73%. Also, in assay [2], the EC50 is above 10000 nM and the maximal response (Emax) came to 23%.

For `[2H]C([2H])([2H])c1cc2c(-c3cc(F)c(CN4C(=O)c5cccnc5C4([2H])[2H])c(F)c3)cccn2n1` [Compound 236, 6-(2,6-Difluoro-4-(2-(methyl-d3)pyrazolo[1,5-a]pyridin-4-yl)benzyl)-6,7-dihydro-5H-pyrrolo[3,4-b]pyridin-5-one-7,7-d2], in assay [1], the EC50 was determined as 745 nM and the Emax was determined as 76%. In assay [2], the EC50 stood at 9560 nM and the Emax turned out to be 22%.

Regarding `[2H]C1([2H])c2ncccc2C(=O)N1Cc1ccc(-c2ccc3c(cnn3C)c2)cc1` [Compound 237, 6-(4-(1-methyl-1H-indazol-5-yl)benzyl)-6,7-dihydro-5H-pyrrolo[3,4-b]pyridin-5-one-7,7-d2], in assay [1], the EC50 was above 10000 nM and the Emax amounted to 47%. In assay [2], the “Agonist Activity Human M1 EC50” value is “Inactive” and the Emax was 2%.

Broadly, the EC50 is the midpoint of the concentration-response curve. A word on the Emax: it is the size of the effect at its maximum, as opposed to the concentration needed.
